From ChEMBL document CHEMBL5209590, “Membrane potential based transport assay for SLC7A3 using HEK293 JumpIn SLC7A3 OE cells” (2022) come the findings set out here.

This assay concerns the target Cationic amino acid transporter 3 (Homo sapiens, UniProt Q8WY07). Briefly: Substrate uptake by the Cationic Amino Acid Transporter (CAT-3, SLC7A3) as assessed by the fluorescent FLIPR membrane potential dye in HEK-293 JumpIN-SLC7A3 cells (PubChem AID: 1745863). The class given is functional, cell-based, HEK293.

Sequence of Cationic amino acid transporter 3 (Q8WY07 whole entry): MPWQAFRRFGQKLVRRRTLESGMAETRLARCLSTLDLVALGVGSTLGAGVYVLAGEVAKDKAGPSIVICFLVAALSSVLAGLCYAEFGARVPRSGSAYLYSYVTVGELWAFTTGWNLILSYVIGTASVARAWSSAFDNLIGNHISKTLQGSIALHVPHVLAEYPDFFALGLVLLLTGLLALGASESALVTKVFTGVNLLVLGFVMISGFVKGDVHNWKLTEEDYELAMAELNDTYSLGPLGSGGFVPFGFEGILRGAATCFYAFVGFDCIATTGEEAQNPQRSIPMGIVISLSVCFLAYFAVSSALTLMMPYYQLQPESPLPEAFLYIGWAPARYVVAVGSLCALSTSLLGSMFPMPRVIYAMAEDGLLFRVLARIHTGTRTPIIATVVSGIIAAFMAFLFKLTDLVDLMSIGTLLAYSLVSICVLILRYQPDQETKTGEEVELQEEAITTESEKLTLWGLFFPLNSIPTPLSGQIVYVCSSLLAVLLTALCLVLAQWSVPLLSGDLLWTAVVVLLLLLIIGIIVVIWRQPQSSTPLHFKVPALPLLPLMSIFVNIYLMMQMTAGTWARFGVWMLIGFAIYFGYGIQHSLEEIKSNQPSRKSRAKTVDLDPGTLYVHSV

Take `NCCC[C@H](N)C(=O)O`: the EC50 (as a rule, the concentration giving half of the maximal effect) stood at 237 µM. The same measure for `N=C(N)NCCC[C@H](N)C(=O)O` [ARGININE]: 283 µM; for `NCCCC[C@H](N)C(=O)O` [LYSINE]: 158 µM.
